“And” between values parts separate entries of the source, which are not always exact repeats. Equal entries are not always repeated.
Columns and labels:
[1] = Human HepG2 cell viability dose-response assay; type: toxicity, cell-based
[2] = Human HepG2 cell viability assay in 384 well format; type: toxicity, cell-based; parameters: dose 125 nL, time 70.5 hour; cytotoxicity at 70.5 h: concentration not given beside the values; conditions: for cytotoxicity at 70.5 h: HepG2 cells, read-out: Inhibition; for Inhibition: hepg2, 70.5 h, 70.5 h

SMILES	BOTTOM [1]	HILLSLOPE [1]	TOP [1]	pXC50 [1]	cytotoxicity at 70.5 h [2]	Inhibition [2]
O=C(Nc1cc(C(F)(F)F)c[nH]c1=O)c1ccco1	-14.03 and -12.55	1.1 and 1.086	100	4.903 and 4.796	64%	–
CC1=Nc2c(c(=O)[nH]n2C(C)C)C(c2ccsc2)S1 (centres undefined)	–	–	–	–	–	-5.291% and -4.016%
CC1=Nc2c(c(=O)[nH]n2C2CCCCC2)C(c2ccc(C(=O)O)cc2)S1 (centres undefined)	–	–	–	–	–	-14.53% and -17.54%
Cc1cc(NC(=O)C(C)Cn2cncn2)no1 (centres undefined)	–	–	–	–	–	6.977% and -4.493%
O=C(NCCCN1CCCCC1)c1ccc(-n2ccc3ccccc32)s1	-3.023 and -2.579	5.041 and 5.956	103.2 and 102.3	5.01 and 4.975	64.9%	–
Cn1nc(C(=O)NCc2ccccn2)c2c1CCS(=O)(=O)C2	0	0	0	< 4.53	88.4%	–
Cc1cccc(C)c1Nc1noc2c1CN(C(=O)c1cn(C)cn1)CC2	-7.032 and -2.364	1.548 and 1.741	100	4.986 and 4.918	75.1%	–
CC(C)Nc1cc(-c2c[nH]nc2C2CCN(C(=O)C3CCC3)C2)ccn1 (centres undefined)	5.771 and 12.22	3.68 and 3.705	97.15 and 97.9	6.593 and 6.589	95.8%	–
Fc1cccc(Nc2nc(N3CCCC3)nc3c2CNCC3)c1	–	8.053 and 11.8	102.5 and 101.7	5.055 and 5.01	80.4%	–
Cc1ccc(S(=O)(=O)N2C[C@H]3C[C@H](NC(=O)c4cc[nH]n4)[C@H]3C2)cc1	-15.24 and -16.22	0.6106 and 0.5978	100	5.239 and 5.299	61.6%	–
Cc1cc(NC2CCc3nc(C(C)C)nn3C2)n2ncnc2n1 (centres undefined)	0	0	0	< 4.53	84.4%	–
Cc1n[nH]c(C2CN(CC(=O)NCCC3=CCCCC3)CCO2)n1 (centres undefined)	0	0	0	< 4.53	76.6%	–
Cc1cnc(CCN(C)C(=O)c2cccc(N(C)C)c2)s1	0	0	0	< 4.53	60.6%	–
Cc1nn(C)cc1C(=O)Nc1cccc(CN2CCC(CO)CC2)c1	0	0	0	< 4.53	60.6%	–
COCC(NC(=O)c1cn2ccsc2n1)c1ccnn1C (centres undefined)	0	0	0	< 4.53	97.2%	–
OC1COCCN(Cc2cc(-c3ccccc3OC(F)(F)F)no2)C1 (centres undefined)	0	0	0	< 4.53	60%	–
CCc1[nH]c2c(CNc3cc(C)nc(NC)n3)cc(C)cc2c1C	-3.677 and -3.483	3.229 and 3.201	103.4 and 104.1	5.247 and 5.258	98.3%	–
Cc1nc(CC(C)C)cc(C(=O)N2C[C@@H](N(C)C)[C@H](C(C)C)C2)n1	0	0	0	< 4.53	67%	–
NCC1CCN(C2CCN(c3ccc(-c4ccco4)cc3)CC2)C1 (centres undefined)	-8.648 and -4.813	7.574 and 7.233	102.1 and 102.4	5.593 and 5.596	102%	–
CC(C)c1cc(CN2CCNCC2)no1	-2.548 and -2.696	–	101.6 and 102.2	4.866 and 4.991	94.6%	–
Cc1ccoc1-c1nnc(CNCCn2cccn2)o1	–	–	–	–	31.8%	–

SMILES	BOTTOM [1]	HILLSLOPE [1]	TOP [1]	pXC50 [1]	cytotoxicity at 70.5 h [2]	Inhibition [2]
CCc1n[nH]c(C2CN(C(=O)c3cc4c(s3)CCCC4)CCO2)n1 (centres undefined)	–	–	–	–	4.71%	–
CN1CCOC(CNCc2coc(-c3ccccc3)n2)C1 (centres undefined)	–	–	–	–	-0.149%	–
CN1CCOC(CNCCc2ccccn2)C1 (centres undefined)	–	–	–	–	-1.1%	–
Cc1ccc(S(=O)(=O)NC(=O)c2cccc(OCC(N)=O)c2)s1	–	–	–	–	-3.78%	–
COc1cccc(-n2c(C)cc(C(=O)O)c2C)c1	–	–	–	–	-5.75%	–
CC1CCCN(C(=O)CCc2cccnc2)C1 (centres undefined)	–	–	–	–	-3.28%	–
N#Cc1cnn(-c2ccc(C(=O)Nc3ccccn3)cc2)c1N	–	–	–	–	25.3%	–
COc1ccccc1C(O)CNC(=O)NCc1cccnc1OC (centres undefined)	–	–	–	–	6.04%	–
Cn1c(NCC(O)c2ccc(F)cc2F)c(C#N)c(=O)n(C)c1=O (centres undefined)	–	–	–	–	-5.92%	–
COc1ccccc1C(O)CNC(=O)Nc1ncccc1C (centres undefined)	–	–	–	–	7.49%	–
CC(NC(=O)NCCn1ccnc1)c1ccc2c(c1)NC(=O)CO2 (centres undefined)	–	–	–	–	-0.375%	–
NC(=O)c1ccc(S(=O)(=O)NC2CCN(Cc3ccccc3)C2=O)cc1 (centres undefined)	–	–	–	–	-8.89%	–
c1coc(-c2nnc(CN3CCOC(Cn4cccn4)C3)o2)c1 (centres undefined)	–	–	–	–	6.43%	–
COc1ccc(NC(=O)c2ccc(-n3ncc(C#N)c3N)cc2)cn1	–	–	–	–	3.5%	–
Cc1cccc(C2(CNC(=O)CCN3C(=O)CCC3=O)CCCC2)c1	–	–	–	–	21%	–
CC(C)c1n[nH]c(C(=O)Nc2cc[nH]n2)c1Br	–	–	–	–	7.8%	–
COc1ccc(C2=CCN(C(=O)CN(C)CC(C)C#N)CC2)cc1 (centres undefined)	–	–	–	–	44.4%	–
CN1CCOC(CNCc2cccc(OCC(F)(F)F)c2)C1 (centres undefined)	–	–	–	–	-1.74%	–
CN1CCOC(CNCc2cccc(OCc3ccccn3)c2)C1 (centres undefined)	–	–	–	–	-3.38%	–
Cc1nc(C)n(CC2CCCN2CCOc2ccc(C#N)cc2)n1 (centres undefined)	–	–	–	–	6.36%	–
Fc1ccc(-c2cnc(CN3CCCC3Cn3cccn3)o2)cc1 (centres undefined)	–	–	–	–	-8.12%	–

SMILES	BOTTOM [1]	HILLSLOPE [1]	TOP [1]	pXC50 [1]	cytotoxicity at 70.5 h [2]	Inhibition [2]
OC(CN1CCC(c2ccn[nH]2)CC1)c1cccc(F)c1 (centres undefined)	–	–	–	–	-28.7%	–
CS(=O)(=O)c1ccc(C(O)CN2CCC(c3ccn[nH]3)CC2)cc1 (centres undefined)	–	–	–	–	-17.4%	–
Cc1noc(CN2CCC(c3ccnn3CCO)CC2)n1	–	–	–	–	-13.4%	–
CCCNC(=O)CNc1cc(C#N)ccc1OCC	–	–	–	–	14.1%	–
Cc1ccn(-c2ccc(C(=O)N3CCCC(C(N)=O)C3)cc2)n1 (centres undefined)	–	–	–	–	-9.79%	–
CN(Cc1cnn(C)c1)C(=O)NCc1nnc2n1CCC2	–	–	–	–	-25.4%	–
N#Cc1ccc(OCCCN2CCc3cncnc3C2)cc1	–	–	–	–	-0.112%	–
CC1=NN(c2ccc(C(=O)N3CCCC(n4ccnc4)C3)cc2)CC1 (centres undefined)	–	–	–	–	-17.1%	–
Cc1cccc(NC2CCN(C(=O)Nc3cc(F)cc(F)c3)CC2)n1	–	–	–	–	42.8%	–
Cn1cnc2c1CCN(CCCOc1ccc(C#N)cc1)C2	–	–	–	–	-10.6%	–
Cc1cc(C2CCCN(CCCNS(C)(=O)=O)C2)n[nH]1 (centres undefined)	–	–	–	–	-25.3%	–
Cc1cc(C2CCCN(CCc3ccccn3)C2)n[nH]1 (centres undefined)	–	–	–	–	-17%	–
Cc1noc(C(C)C)c1C(=O)NCC(c1cccc(F)c1)N(C)C (centres undefined)	–	–	–	–	-21.3%	–
Cc1cnn(CC2CCCN2C(=O)CCc2nc3ccccc3[nH]2)c1 (centres undefined)	–	–	–	–	-15.5%	–
O=C(CCc1nccs1)N1CCN(c2ccccc2F)CC1	–	–	–	–	34.9%	–
Cc1noc2ncc(C(=O)N3CCCC3c3cnn(C)c3)cc12 (centres undefined)	–	–	–	–	-6.59%	–
Cc1nc(Nc2ncc(C)s2)cc(C2CCCN2)n1.Cl (centres undefined)	26.01 and 24.5	4.462 and 3.743	100.2 and 98.81	5.319 and 5.315	95.5%	–
COc1ccc(CNC(Cc2ccsc2)c2ccc(C)cn2)cc1OC.Cl (centres undefined)	-6.281 and -3.457	2.493 and 1.7	86.66 and 100	5.471 and 5.341	91.5%	–
Cl.Cl.Clc1cccc(C[C@@H]2NCCC[C@@H]2Nc2cccc(Cl)c2)c1	–	19.49 and 7.416	101.7 and 101.8	5.461 and 5.474	105%	–
CC(C)N1CCN(c2ccc3ccc(C(=O)NC4CCCC4)cn23)CC1.O=C(O)C(F)(F)F	0	0	0	< 4.53	101%	–
Cc1ccc2nc(CNCCCOc3ccccc3)cc(O)c2c1 [UCSF924]	–	–	–	–	-2.02%	–

From ChEMBL document CHEMBL3507680, “University of Dundee, Gates Library screen for HepG2 cell viability”
